Measured values reported in US11421264B2, “Thiol-containing cleave reagents and oxidative wash” (IsoPlexis Corporation, priority 2015, dated 2022).
Counter-ions that a name gives are not always drawn.

Key:
[1] = Cleavage of nucleotide with dithio 3′ protective group and dithio based linker by cleavage agents (RP-HPLC, FIG. 78); settings: RP-HPLC after 10 minutes of incubation with cleave reagent
Source text: In addition to these a variety of suitable cleaving agents can be used such as Bis(2-mercaptoethyl)sulfone (BMS) and N,N′-dimethyl-N,N′-bis(mercaptoacetyl)hydrazine (DMH) (Singh et al., Bioorg. Chem., 22, 109-115 (1994). Reactions can be further catalyzed by inclusion of selenols (Singh et al. Anal Biochem. 1995 Nov. 20; 232(1):86-91 [18]). Borohydrides, such as sodium borohydrides can also be used for this purpose (Stahl et al., Anal. Chem., 1957, 29 (1), pp 154-155 [19]) as well as ascorbic acid (Nardai et al., J. Biol. Chem. 276, 8825-8828 (2001)). In addition, enzymatic methods for cleavage of disulfide bonds ae also well known such as disulfide and thioreductase and can be used with compounds of the present invention (Holmgren et. al., Methods in Enzymology, Volume 252, 1995, Pages 199-208 [21]).

[2] = Cleavage of 3′-(MeSSCH2) capped nucleotide with attached disulfide linker by thiol based cleave reagents (LC-MS); settings: for Compound C [%]: fully cleaved product; for Compound C [%] / Compound B [%] / Compound A [%]: Compound A 0.2 mM, cleave agent 20 mM, buffer 200 mM TE pH 8.5, 10 min @ 65 degree C.; for Compound B [%]: partly cleaved product; for Compound A [%]: starting nucleotide left, relative peak area at 280
Description: The structures of these cleave reagents are shown. See, FIG. 83. The cleavage products were then characterized by liquid chromatography/mass spectrometry ((LC/MS). See, FIG. 84. Compounds A, B and C are shown in FIG. 82A-82C.
This example presents a general method for cleavage studies as presented herein.
A stock solution of 100 mM cleave reagent (see Table-1) was prepared in 1.0 M TE buffer (pH 8.5, Sigma #T9285) in a 15.0 mL centrifuge tube. Then an aliquot of 20 μL (2,000 nmol) of it was diluted with 76.9 uL distilled water in a 1.0 mL centrifuge tube and added with 3.07 μL of 6.5 mM MeSSdUTP-ARA-NH2 (11, 20 nmol) to obtain—100 litL of total volume (Final concentration: 20 mM cleaving agent, 0.2 mM nucleotide, 200 mM TE buffer). The mixture tube was heated at 65 degree C. on a pre-heated thermocycler by shaking gently. The mixture was immediately analyzed by LC-MS after 10 minutes. The % conversion was determined by relative peak areas of the respective peaks extracted at 280 mu wavelength.

Compound | identified composition of reaction mixture: cleavage of linker and 3′-protective group [1] | Compound C [%] [2] | Compound B [%] [2] | Compound A [%] [2] | cleavage of both the capping group and the linker ([2]; in less than ten (10) minutes at 65° C. in TRIS buffer (pH 8.5))
O[C@H](CS)[C@H](O)CS (racemic) [DTT, dithiothreitol] | full cleavage of both linker and the 3′-protective groups | 100% | 0% | 0% | –
NCCS [Cysteamine] | full cleavage of both linker and the 3′-protective groups | 100% | 0% | 0% | –
O=S(=O)(O)CC(S)CS (centres unmarked) [Dimercaptopropanesulfonate, 2,3-Dimercapto-1-propanesulfonic acid sodium salt] | – | 100% | 0% | 0% | –
OC(=S)CCC(O)=S [Dithiosuccinic acid] | – | – | – | – | complete cleavage was not observed
N[C@@H](CS)C(=O)O [L-Cysteine] | full cleavage of both linker and the 3′-protective groups | 100% | 0% | 0% | –
Dithiosuccinic acid | selective cleavage of 3′-O-protective group | 50% | 50% | 0% | –
